Results taken from patent US20160166560A1, “Urea Compounds and Their Use as FAAH Enzyme Inhibitors” (BIAL-PORTELA & Cª, S.A., priority 2013, published 2016).
Counter-ions that a name gives are not always drawn.

Columns and labels:
CYPs = CYPs metabolic stability assay in HLM (human liver microsomes); format: in vitro ADME; details: HLM 1 mg/ml protein, compound 5 μM, 60 min, 37° C.; for Control (% remain): absence of NADPH; for CYP+ (% remain): with NADPH 1 mM
Description: Stability of the test compounds was performed in HLM (human liver microsomes) in the presence and in the absence of NADPH.
The stability was measured using the incubation mixture (100 μl total volume) contained 1 mg/ml total protein, MgCl2 5 mM and 50 mM K-phosphate buffer. Samples were incubated in the presence and in the absence of NADPH 1 mM. Reactions were pre-incubated 5 min and the reaction initiated with the compound under test (at a concentration of 5 μM). Samples were incubated for 60 min in a shaking water bath at 37° C. The reaction was stopped by adding 100 μl of acetonitrile. Samples were then centrifuged, filtered and supematant injected in HLPC-MSD. Test compounds were dissolved in DMSO and the final concentration of DMSO in the reaction was below 0.5% (v/v). At T0 acetonitrile was added before adding the compound. All experiments were performed with samples in duplicate.

[1] = Solubility assay in purified water; format: physicochemical; details: pH 5.7, thermodynamic from solid; purified water pH=5.6-5.8, stirring 2 h, room temperature, HPLC
Description: A saturated solution was prepared by adding the test compound in excess to 1 mL of purified water (pH=5.6-5.8) followed by stirring of the mixture for 2 h at room temperature. Thereupon, the un-dissolved material was removed by filtration and the amount of test compound in the filtrate was quantified by HPLC using a calibration curve.

FAAH [2] = molecular target: T1, FAAH (Mus musculus, UniProt O08914); assay: In vitro/ex vivo FAAH activity determination in brain after intra-tracheal instillation; set-up: Liver and brain fragments were removed and processed for enzymatic activity determination; from tissue; species or system male NMRI mice; details: remaining enzymatic activity vs controls
T1 sequence (O08914 1-579): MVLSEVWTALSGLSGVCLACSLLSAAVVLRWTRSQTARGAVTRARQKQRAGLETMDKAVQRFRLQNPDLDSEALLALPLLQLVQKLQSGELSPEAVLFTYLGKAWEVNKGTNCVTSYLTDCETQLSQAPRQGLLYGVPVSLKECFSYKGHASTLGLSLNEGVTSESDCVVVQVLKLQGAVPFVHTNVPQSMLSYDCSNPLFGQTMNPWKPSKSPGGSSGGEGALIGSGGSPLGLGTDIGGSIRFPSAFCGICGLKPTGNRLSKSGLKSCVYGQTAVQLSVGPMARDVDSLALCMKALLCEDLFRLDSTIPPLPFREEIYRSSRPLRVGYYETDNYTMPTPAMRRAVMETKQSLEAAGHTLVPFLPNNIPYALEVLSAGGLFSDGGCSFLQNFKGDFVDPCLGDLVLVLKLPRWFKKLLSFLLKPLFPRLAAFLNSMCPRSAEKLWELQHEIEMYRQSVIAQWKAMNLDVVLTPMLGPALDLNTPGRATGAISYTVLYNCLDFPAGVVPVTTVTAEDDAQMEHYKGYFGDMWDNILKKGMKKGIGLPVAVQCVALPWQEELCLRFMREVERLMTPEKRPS
Description: (§1) To evaluate the selectivity of test compounds in inhibiting FAAH activity, male NMRI mice were administrated following instillation with 1 mg/kg compound and were sacrificed after 8 h treatment. Liver and brain fragments were removed and processed for enzymatic activity determination.
(§2) FAAH activity was measured as the amount of ^3H-ethanolamine formed, by liquid scintillation counting, from the hydrolysis of the substrate anandamide (AEA, labeled with ^3H on the ethanolamine part of the molecule). The percentage of remaining enzymatic activity was calculated in respect to controls and after blank subtraction. Therefore, a low value for the test compounds indicates a strong inhibitor.
(§3) Male NMRI mice (body weight range: 25-35 g) were obtained from Harlan Laboratories (Barcelona, Spain). Animals were kept 10 per cage, under controlled environmental conditions (12 hr light [8 am]/12 hr dark [8 pm]cycle; room temperature 22±1° C.). Food and tap water were allowed ad libitum. Animals were habituated to the animal facilities at least for a week prior to experiments. The experiments were all carried out during daylight hours.
(§4) Animals were fasted overnight before administration of compounds. […] After administration the animals were given atipamezole (1 mg/kg) to reverse the sedative and analgesic effects induced by the anaesthesia.
(§5) Fifteen minutes before sacrifice, animals were anesthetized with pentobarbital 60 mg/kg administrated intra-peritoneally. The brain (without cerebellum) and a fragment of liver were collected into plastic vials containing membrane buffer (3 mM MgCl2, 1 mM EDTA, 50 mM Tris HCl, pH 7.4). Glass beads (2.5 mm BioSpec Products, Bartlesville, Okla., USA) were added to the vials containing the brain and liver tissues. Tissues were stored at −20° C. until analysis.
(§6) Anandamide [ethanolamine-1-^3H-] was obtained from American Radiochemicals—with a specific activity of 60 Ci/mmol. All other reagents were obtained from Sigma-Aldrich. Optiphase Supermix was obtained from Perkin Elmer.
(§7) Brain and liver tissues were thawed and homogenized in 10 volumes of membrane buffer (3 mM MgCl2, 1 mM EDTA, 50 mM Tris HCl, pH 7.4) with homogenizer Precellys 24 Dual Tissue Homogenizer (Bertin Technologies) for 2 cycles of 5 sec (5000 rpm).
(§8) Total protein in the tissue homogenates was determined with the BioRad Protein Assay (BioRad) using a standard curve of BSA ([…]). Tissue homogenates were diluted to appropriate concentration for enzymatic determination in assay buffer (1 mM EDTA, 10 mM Tris HCl, pH 7.6).
(§9) Reaction mix (total volume 200 μL) contained 2 μM AEA (2 μM AEA+5 nM ^3H-AEA), 0.1% fatty acid free BSA, 15 μg (brain) or 5 μg (liver) protein, in assay buffer (1 mM EDTA, 10 mM Tris pH 7.6).
(§10) The test compound was used at a level of 1 mg/kg protein. After 15 minutes pre-incubation at 37° C. of the protein sample, reaction was started by the addition of the substrate solution (cold AEA+radiolabelled AEA+BSA). Reaction was carried out for 12 minutes for brain and liver tissues. Reaction was terminated by addition of 400 μL chloroform:methanol (1:1, v/v) solution. Reaction samples were vortex twice, left on ice for 5 minutes and then centrifuged in the microfuge for 7 minutes, 7000 rpm. 200 μL of the obtained supernatants were added to […] Optiphase Supermix scintillation cocktail previously distributed in 24-well plates.
(§11) Counts per minute (cpm) were determined in a Microbeta TriLux scintillation counter. In each assay blank samples (without protein) were prepared.

FAAH [3] = molecular target: T1, FAAH; assay: In vitro/ex vivo FAAH activity determination in liver after intra-tracheal instillation; set-up: Liver and brain fragments were removed and processed for enzymatic activity determination; from tissue; host or cells: mouse liver fragment homogenate; species or system male NMRI mice; details: remaining enzymatic activity vs controls
Description: as §1, §2, §3, §4, §5, §6, §7, §8, §9, §10, §11

[4] = 1 mg/kg intra-tracheal instillation, sacrificed after 8 h
[5] = 1 mg/kg intra-tracheal instillation, sacrificed after 8 h, methanesulfonate, 1 mg/kg
[6] = tested at 0.1 mg/kg rather than 1 mg/kg

SMILES | Control (% remain) (CYPs) | CYP+ (% remain) (CYPs) | solubility at 2 h [1] | FAAH Activity - Brain itc (% C) (FAAH [2]; [4]) | FAAH Activity - Liver itc (% C) (FAAH [3]; [4]) | Control (% remain) (CYPs; methanesulfonate) | CYP+ (% remain) (CYPs; methanesulfonate) | FAAH Activity - Brain itc (% C) (FAAH [2]; [5]) | FAAH Activity - Liver itc (% C) (FAAH [3]; [5]) | FAAH Activity - Brain itc (% C) (FAAH [2]; [6]) | FAAH Activity - Liver itc (% C) (FAAH [3]; [6])
COc1cccc(CN2CCC(N(C)C(=O)n3cnc(-c4cccc(NS(N)(=O)=O)c4)c3)CC2)c1 [Example 3, N-(1-(3-methoxybenzyl)piperidin-4-yl)-N-methyl-4-(3-(sulfamoylamino)phenyl)-1H-imidazole-1-carboxamide hydrochloride] | 103.5 % remain | 17.5 % remain | 7700 µg/mL | 96.0 % C | 5.3 % C |  |  |  |  |  | 
CN(C(=O)n1cnc(-c2cccc(NC(N)=O)c2)c1)C1CCN(Cc2ccccc2)CC1.O=C(O)/C=C\C(=O)O [Example 21, N-(1-benzylpiperidin-4-yl)-N-methyl-4-(3-ureidophenyl)-1H-imidazole-1-carboxamide maleate] |  |  | 4300 µg/mL | 92.4 % C | 8.2 % C |  |  |  |  |  | 
COc1cccc(CN2CCC(N(C)C(=O)n3cnc(-c4cccc(NS(N)(=O)=O)c4)c3)CC2)c1.CS(=O)(=O)O [Example 23, N-(1-(3-methoxybenzyl)piperidin-4-yl)-N-methyl-4-(3-(sulfamoylamino)phenyl)-1H-imidazole-1-carboxamide methanesulfonate] |  |  | > 16000 µg/mL | 82.1 % C | 11.5 % C |  |  |  |  |  | 
COc1ccc(CN2CCC(N(C)C(=O)n3cnc(-c4cccc(NC(N)=O)c4)c3)CC2)cc1OC [Example 26, N-(1-(3,4-dimethoxybenzyl)piperidin-4-yl)-N-methyl-4-(3-ureidophenyl)-1H-imidazole-1-carboxamide hydrochloride] | 97.7 % remain | 81.4 % remain |  | 124.3 % C | 12.4 % C |  |  |  |  |  | 
COc1cc(CN2CCC(N(C)C(=O)n3cnc(-c4ccc(OS(N)(=O)=O)cc4)c3)CC2)cc(OC)c1 [Example 27, 4-(1-((1-(3,5-dimethoxybenzyl)piperidin-4-yl)(methyl)carbamoyl)-1H-imidazol-4-yl)phenyl sulfamate methanesulfonate] |  |  |  |  |  | 96.9 % remain | 26.7 % remain | 84.3 % C | 13.9 % C |  | 
CN(C(=O)n1cnc(-c2ccc(OS(N)(=O)=O)cc2)c1)C1CCN(c2ccc(O)cc2)CC1 [Example 28, 4-(1-((1-(4-hydroxyphenyl)piperidin-4-yl)(methyl)carbamoyl)-1H-imidazol-4-yl)phenyl sulfamate hydrochloride] | 84.8 % remain | 66.0 % remain |  | 91.0 % C | 3.4 % C |  |  |  |  |  | 
CN(C(=O)n1cnc(-c2cccc(OS(N)(=O)=O)c2)c1)C1CCN(c2ccc(Br)c(O)c2)CC1 [Example 29, 3-(1-((1-(4-bromo-3-hydroxyphenyl)piperidin-4-yl)(methyl)carbamoyl)-1 H-imidazol-4-yl)phenyl sulfamate hydrochloride] | 79.6 % remain | 79.5 % remain |  | 97.6 % C | 10.5 % C |  |  |  |  |  | 
CN(C(=O)n1cnc(-c2cccc(OS(N)(=O)=O)c2)c1)C1CCN(Cc2ccc3c(c2)OCO3)CC1 [Example 30, 3-(1-((1-(benzo[d][1,3]dioxol-5-ylmethyl)piperidin-4-yl)(methyl)carbamoyl)-1H-imidazol-4-yl)phenyl sulfamate hydrochloride] | 97.8 % remain | 64.8 % remain |  | 107.1 % C | 13.7 % C |  |  |  |  |  | 
COc1cc(CN2CCC(N(C)C(=O)n3cnc(-c4cccc(C(N)=O)c4)c3)CC2)ccc1F [Example 31, 4-(3-carbamoylphenyl)-N-(1-(4-fluoro-3-methoxybenzyl)piperidin-4-yl)-N-methyl-1H-imidazole-1-carboxamide hydrochloride] | 111.7 % remain | 18.5 % remain |  |  |  |  |  |  |  | 87.7 % C | 13.1 % C
COc1ccc(F)c(CN2CCC(N(C)C(=O)n3cnc(-c4cccc(C(N)=O)c4)c3)CC2)c1 [Example 32, 4-(3-carbamoylphenyl)-N-(1-(2-fluoro-5-methoxybenzyl)piperidin-4-yl)-N-methyl-1H-imidazole-1-carboxamide hydrochloride] | 115.2 % remain | 14.2 % remain |  |  |  |  |  |  |  | 96.0 % C | 12.8 % C
